What was measured:
caspase 1 [1] = biological target: T1, caspase 1 (Homo sapiens, UniProt P29466); test: caspase 1 inhibition assay with caged fluorescent peptide substrate (Ac-LEHD-AMC); format: biochemical; conditions: 2 nM enzyme, 20 minutes at room temperature, fluorescence detection, read-out: IC50 versus caspase 1
T1 sequence (P29466 120-297 limits assumed): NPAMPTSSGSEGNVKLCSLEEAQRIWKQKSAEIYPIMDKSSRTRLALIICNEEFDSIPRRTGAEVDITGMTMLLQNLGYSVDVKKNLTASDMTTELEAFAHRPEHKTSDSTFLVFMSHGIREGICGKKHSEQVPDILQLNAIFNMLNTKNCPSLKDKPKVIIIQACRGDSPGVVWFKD
T1 sequence (P29466 317-404 limits assumed): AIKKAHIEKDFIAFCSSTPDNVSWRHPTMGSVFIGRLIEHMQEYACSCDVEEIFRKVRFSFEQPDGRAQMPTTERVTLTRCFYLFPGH
Description: Each agent's inhibitory capacity versus caspase 1 was evaluated. A well established protocol was utilized whereby caspase 1 activity is measured utilizing 2 nM enzyme in the presence and absence of compound and a caged fluorescent peptide substrate (Ac-LEHD-AMC). Wannamaker et al, Journal of Pharmacology and Experimental Therapeutics, 2007, 321, 509-516. The compounds were examined across a titration series (0.325 nM→57.5 μM) and data was recorded via fluorescence detection following an incubation period of 20 minutes at room temperature.

[2] = plasma protein binding, rat; format: in vitro ADME; conditions: relative to VX-765 (1) and NCGC00185682 (3)
Description: (§1) Given the aqueous stability of these new agents, selected ADME properties for chosen compounds were also examined. VX-765 (1), VRT-043198 (2b), NCGC00185682 (3), NCGC00183434 (4) and NCGC00183681 (16) were evaluated for a profile of bi-directional Caco-2 permeability, plasma protein binding (both human and rat) and microsomal stability (both human and rat) studies (FIG. 9, Table 2). […] The clearance rates (Clint) and t ½ for VRT-043198 (2b), NCGC00185682 (3), NCGC00183434 (4) and NCGC00183681 (16) were all moderate.

[3] = aqueous degradation study by LCMS over 96 hours; format: physicochemical; conditions: for aqueous stability in acidic conditions (pH 2): pH 2, LCMS; for aqueous stability in acidic conditions (pH 2) / aqueous stability in neutral conditions (water, pH 7) / aqueous stability in basic conditions (pH 8): over 96 hours; for aqueous stability in neutral conditions (water, pH 7): pH 7, LCMS; for aqueous stability in basic conditions (pH 8): pH 8, LCMS
Description: In order to evaluate the agent's stability profile, VX-765 (1), VRT-043198 (2b), NCGC00185682 (3), NCGC00183434 (4) and NCGC00183681 (16) were examined within an aqueous degradation study at neutral (pH 7) acidic (pH 2) and basic (pH 8) conditions. The study was conducted by monitoring the degradation of each agent by LCMS analysis at various time points over 96 hours (FIG. 8). […] This degradation was amplified in both basic and acidic conditions. Conversely, the active agent VRT-043198 (2b) was very stable in both water and acidic conditions and its degradation at pH 8 was moderate.

[4] = microsomal stability (both human and rat); format: in vitro ADME; conditions: for clearance rates (Clint) / t ½: species not given
Description: as §1

caspase 1 [5] = biological target: T1, caspase 1; test: commercial panel of caspases (Reaction Biology Corporation), caspase 1; format: biochemical; conditions: read-out: IC50 versus caspase 1
Text: (§2) Having established that the compounds (3), (4) and (16) are potent inhibitors of caspase 1, the selectivity of these agents was examined. […] Wannamaker, W.; Davies, R.; Namchuk, M.; Pollard, J.; Ford, P.; Ku, G.; Decker, C.; Charifson, P.; Weber, P.; Germann, U. A.; Kuida, K.; Randle, J. C. R. J. Pharmacol. Exp. Ther. 2007, 321, 509-516. […] VRT-043198 (2b), NCGC00185682 (3), NCGC00183434 (4) and NCGC00183681 (16) were entered within a commercial panel of caspases offered by Reaction Biology Corporation. […] A particularly interesting aspect of these molecules was the high selectivity for caspase 1. […] All other activities were about the 1 μM threshold.

caspase 9 = biological target: T2, caspase 9 (Homo sapiens, UniProt P55211); test: commercial panel of caspases (Reaction Biology Corporation), caspase 9; format: biochemical; conditions: read-out: IC50 versus caspase 9
T2 construct: purchased Reaction Biology Corporation
T2 sequence (P55211 1-315 limits assumed): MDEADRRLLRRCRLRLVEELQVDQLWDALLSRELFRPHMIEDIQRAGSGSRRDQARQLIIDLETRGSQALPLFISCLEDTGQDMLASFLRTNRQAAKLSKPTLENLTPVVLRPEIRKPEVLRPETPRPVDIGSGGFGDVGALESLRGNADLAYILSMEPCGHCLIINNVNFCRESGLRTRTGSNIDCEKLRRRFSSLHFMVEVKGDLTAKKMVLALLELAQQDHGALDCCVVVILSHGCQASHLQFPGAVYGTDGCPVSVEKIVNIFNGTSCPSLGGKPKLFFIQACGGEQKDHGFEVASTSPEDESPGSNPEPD
T2 sequence (P55211 331-416 limits assumed): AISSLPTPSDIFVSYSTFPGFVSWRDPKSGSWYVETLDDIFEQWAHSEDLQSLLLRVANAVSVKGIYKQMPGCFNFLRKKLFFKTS
Text: as §2

[6] = plasma protein binding, human; format: in vitro ADME; conditions: relative to VX-765 (1) and NCGC00185682 (3)
Description: as §1

caspase 14 = biological target: T3, caspase 14 (Homo sapiens, UniProt P31944); test: commercial panel of caspases (Reaction Biology Corporation), caspase 14; format: biochemical; conditions: read-out: IC50 versus caspase 14
T3 construct: purchased Reaction Biology Corporation
T3 sequence (P31944 6-146 limits assumed): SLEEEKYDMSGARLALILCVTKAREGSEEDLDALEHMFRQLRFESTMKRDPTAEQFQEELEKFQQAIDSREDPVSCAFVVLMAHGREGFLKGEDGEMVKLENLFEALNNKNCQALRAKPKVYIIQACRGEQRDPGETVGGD
T3 sequence (P31944 153-242 limits assumed): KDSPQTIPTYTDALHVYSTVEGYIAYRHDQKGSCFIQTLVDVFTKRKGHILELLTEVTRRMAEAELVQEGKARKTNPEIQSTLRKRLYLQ
Text: as §2

Pgp = biological target: T4, Pgp (Homo sapiens, UniProt P08183); test: Caco-2 control experiment with verapamil (Pgp efflux); format: in vitro ADME
T4 construct: endogenous in cells; host or cells: Caco-2
T4 sequence (P08183 whole entry): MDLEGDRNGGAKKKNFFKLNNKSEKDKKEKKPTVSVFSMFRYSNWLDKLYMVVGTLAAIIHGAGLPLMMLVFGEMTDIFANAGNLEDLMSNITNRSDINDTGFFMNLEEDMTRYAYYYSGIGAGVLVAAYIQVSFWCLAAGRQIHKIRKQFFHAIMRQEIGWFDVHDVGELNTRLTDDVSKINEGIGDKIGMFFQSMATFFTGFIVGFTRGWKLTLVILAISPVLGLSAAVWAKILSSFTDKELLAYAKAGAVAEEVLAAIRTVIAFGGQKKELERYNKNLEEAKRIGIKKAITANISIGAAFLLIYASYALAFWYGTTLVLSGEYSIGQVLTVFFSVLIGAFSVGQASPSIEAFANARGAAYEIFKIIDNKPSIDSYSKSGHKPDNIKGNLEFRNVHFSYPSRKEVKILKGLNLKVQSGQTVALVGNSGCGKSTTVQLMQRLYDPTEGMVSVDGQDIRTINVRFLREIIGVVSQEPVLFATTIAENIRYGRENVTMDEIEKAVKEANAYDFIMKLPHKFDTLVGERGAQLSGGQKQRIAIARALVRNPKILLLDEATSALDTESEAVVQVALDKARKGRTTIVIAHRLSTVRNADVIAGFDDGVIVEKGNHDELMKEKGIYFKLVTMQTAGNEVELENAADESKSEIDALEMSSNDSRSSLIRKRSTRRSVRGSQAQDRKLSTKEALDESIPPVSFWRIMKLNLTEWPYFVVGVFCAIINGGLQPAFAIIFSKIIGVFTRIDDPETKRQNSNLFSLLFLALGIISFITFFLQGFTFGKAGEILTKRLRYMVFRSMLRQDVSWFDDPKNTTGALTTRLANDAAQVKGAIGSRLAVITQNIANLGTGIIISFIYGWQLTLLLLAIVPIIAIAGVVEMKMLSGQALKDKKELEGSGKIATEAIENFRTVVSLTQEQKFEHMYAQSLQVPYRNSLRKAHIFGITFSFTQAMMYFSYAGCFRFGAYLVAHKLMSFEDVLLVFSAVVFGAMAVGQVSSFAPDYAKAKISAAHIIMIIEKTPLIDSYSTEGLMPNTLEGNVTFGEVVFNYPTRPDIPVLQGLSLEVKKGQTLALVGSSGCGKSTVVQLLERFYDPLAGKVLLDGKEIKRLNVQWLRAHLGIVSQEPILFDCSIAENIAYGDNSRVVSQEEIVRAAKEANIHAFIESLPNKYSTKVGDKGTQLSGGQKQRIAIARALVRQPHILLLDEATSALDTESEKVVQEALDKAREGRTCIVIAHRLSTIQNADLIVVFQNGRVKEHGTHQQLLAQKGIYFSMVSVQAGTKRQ
Description: as §1

Caco-2 = test: bi-directional Caco-2 permeability; format: in vitro ADME
Description: as §1

Compound	IC50 (caspase 1 [1]) [nM]	free fraction in protein binding assay [2]	aqueous stability in acidic conditions (pH 2) [3]	aqueous stability in neutral conditions (water, pH 7) [3]	aqueous stability in basic conditions (pH 8) [3]	clearance rates (Clint) ([4]; liver microsomes)	t ½ ([4]; liver microsomes)	IC50 (caspase 1 [5]) [nM]	free fraction in protein binding assay [6]	Pgp efflux substrate (Pgp)	Caco-2 A to B permeability (Caco-2)	Caco-2 B to A levels (Caco-2)	also measured
CC(C)(C)C(NC(=O)c1ccc(N)c(Cl)c1)C(=O)N1CCCC1C(=O)NC(C#N)Cc1nnn[nH]1 (centres unmarked) [NCGC00183681 (16)]	20.4	significantly higher	resistant to degradation	resistant to degradation	resistant to degradation	moderate	moderate	2.58	significantly higher	–	–	–	IC50 (caspase 9): 91.5 nM
CC(C)(C)C(NC(=O)c1ccc(N)c(Cl)c1)C(=O)N1CCCC1C(=O)NC(C#N)CC(=O)O (centres unmarked) [NCGC00183434 (4)]	0.316	significantly higher	moderate to good	moderate to good	exceedingly stable	moderate	moderate	0.023	significantly higher	–	–	–	IC50 (caspase 14): 801 nM; degradation in acidic conditions ([3]; acidic (pH 2), after 72 hours): 50%; degradation in neutral conditions ([3]; neutral (pH 7), after 72 hours): 50%; persistence in aqueous conditions ([3]; suggested from the degradation data): > 24 h
CCOC(=O)CC(C#N)NC(=O)C1CCCN1C(=O)C(NC(=O)c1ccc(N)c(Cl)c1)C(C)(C)C (centres unmarked) [NCGC00185682 (3)]	145	–	exceptionally stable	exceptionally stable	–	moderate	moderate	43.4	–	substrates for Pgp efflux	moderately better levels	high	degradation in basic conditions ([3]; basic (pH 8), after 22 hours): fully degraded; degradation in liver microsomes without NADPH ([4]; without NADPH as a cofactor): slight degree of degradation
CCO[C@@H]1OC(=O)C[C@@H]1NC(=O)[C@@H]1CCCN1C(=O)[C@@H](NC(=O)c1ccc(N)c(Cl)c1)C(C)(C)C [VX-765 (1), reference compound]	–	–	amplified	moderate degradation	amplified	–	–	–	–	substrates for Pgp efflux	moderately better levels	high	degradation at pH 2 ([3]; pH 2, after 3.5 hours): 40%; compound decomposed in water ([3]; water (pH 7), after 48 hours): over 50%; metabolism by liver microsomes ([4]; liver microsomes): minimal ability to be metabolized; half-life ([4]; liver microsomes, read-out: t ½): > 157 h
